The text below walks through data of ChEMBL document CHEMBL3813695, “Assessment of the anti-metastatic properties of sanguiin H-6 in HUVECs and MDA-MB-231 human breast cancer cells” (Bioorg Med Chem Lett, 2016).

Data set [1] addresses Mitogen-activated protein kinase; ERK1/ERK2 (Homo sapiens) (UniProt P27361+P28482). Kind of data set: Decrease in phosphorylated ERK1/2 level in human MDA-MB-231 cells after 24 hrs by western blotting method. It is filed as cell-based.
Data set [2] deals with RAC-alpha serine/threonine-protein kinase (Homo sapiens) (UniProt P31749). Kind of data set: Decrease in phosphorylated Akt level in human MDA-MB-231 cells after 24 hrs by western blotting method. It is filed as cell-based.
RAC-alpha serine/threonine-protein kinase (Homo sapiens), sequence (P31749 whole entry): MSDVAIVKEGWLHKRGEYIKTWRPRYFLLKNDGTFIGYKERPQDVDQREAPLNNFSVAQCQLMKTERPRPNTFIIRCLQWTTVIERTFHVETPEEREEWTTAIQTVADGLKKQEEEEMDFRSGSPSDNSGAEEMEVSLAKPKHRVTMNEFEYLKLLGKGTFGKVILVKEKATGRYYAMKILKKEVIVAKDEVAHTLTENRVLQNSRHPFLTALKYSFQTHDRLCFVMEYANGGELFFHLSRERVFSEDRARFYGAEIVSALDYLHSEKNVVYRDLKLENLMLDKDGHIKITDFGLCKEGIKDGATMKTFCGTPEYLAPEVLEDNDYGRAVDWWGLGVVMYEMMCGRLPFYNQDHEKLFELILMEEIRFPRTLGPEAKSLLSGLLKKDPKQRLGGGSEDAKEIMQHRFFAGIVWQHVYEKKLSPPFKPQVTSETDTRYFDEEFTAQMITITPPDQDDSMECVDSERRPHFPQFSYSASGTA
Data set [3] relates to MDA-MB-231. Kind of data set: Cytotoxicity against human MDA-MB-231 cells assessed as decrease in cell viability at 6.25 to 25 uM after 24 hrs by MTT assay. It is filed as functional, cell-based.
The test system of data set [4] is HUVEC. The data set is described as follows: Cytotoxicity against HUVEC assessed as inhibition of cell proliferation up to 12.5 uM after 24 hrs by MTT assay. It is filed as cell-based. The conditions noted are these: human.
The subject of data set [5] is HUVEC. Kind of data set: Inhibition of tube formation in HUVEC at 6.25 uM measured after 24 hrs by Mayers hematoxylin staining based light microscopic analysis relative to control. The conditions noted are these: Homo sapiens. It is filed as functional.
Data set [6] has as its system HUVEC. The data set is described as follows: Antimigratory activity against HUVEC at 6.25 uM measured after 24 hrs by Mayers hematoxylin and eosin-Y staining based microscopic analysis relative to control. It is filed as functional, Homo sapiens.
Data set [7] deals with MDA-MB-231. Kind of data set: Cytotoxicity against human MDA-MB-231 cells assessed as decrease in cell viability at 200 uM after 24 hrs by MTT assay. It is filed as functional, cell-based.
For data set [8], the system named is HUVEC. Kind of data set: Cytotoxicity against HUVEC assessed as inhibition of cell proliferation after 24 hrs by MTT assay. It is filed as cell-based. The conditions noted are these: human.
Data set [9] relates to MDA-MB-231. The data set is described as follows: Decrease in VEGF expression in human MDA-MB-231 cells after 24 hrs by western blotting method. It is filed as functional, cell-based.

Structures are written as SMILES. Calls of active or inactive are those of the source. The rule behind the calls is not given here.

Mitogen-activated protein kinase; ERK1/ERK2 (Homo sapiens), sequence (P27361 whole entry, looked up): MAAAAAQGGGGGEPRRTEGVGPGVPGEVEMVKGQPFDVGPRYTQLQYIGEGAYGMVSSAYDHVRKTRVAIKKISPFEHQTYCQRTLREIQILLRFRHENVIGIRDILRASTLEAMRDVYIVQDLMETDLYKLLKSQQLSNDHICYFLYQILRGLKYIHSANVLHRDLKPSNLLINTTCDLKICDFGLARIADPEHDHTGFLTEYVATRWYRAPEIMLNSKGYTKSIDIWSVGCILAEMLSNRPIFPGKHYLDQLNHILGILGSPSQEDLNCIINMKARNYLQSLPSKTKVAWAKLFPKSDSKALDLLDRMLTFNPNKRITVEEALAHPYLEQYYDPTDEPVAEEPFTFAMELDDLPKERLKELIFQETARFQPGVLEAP
Mitogen-activated protein kinase; ERK1/ERK2 (Homo sapiens), sequence (P28482 whole entry, looked up): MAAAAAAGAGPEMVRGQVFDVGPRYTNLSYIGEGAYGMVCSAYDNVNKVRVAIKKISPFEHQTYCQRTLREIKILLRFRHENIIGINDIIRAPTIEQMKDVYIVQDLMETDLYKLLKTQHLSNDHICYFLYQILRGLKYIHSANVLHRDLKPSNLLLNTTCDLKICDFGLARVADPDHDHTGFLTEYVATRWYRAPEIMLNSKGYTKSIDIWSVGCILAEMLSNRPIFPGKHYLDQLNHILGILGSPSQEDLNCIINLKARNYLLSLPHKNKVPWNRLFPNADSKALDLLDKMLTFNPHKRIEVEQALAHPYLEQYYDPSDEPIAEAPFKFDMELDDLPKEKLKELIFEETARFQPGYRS

As to `O=C(O[C@@H]1O[C@@H]2COC(=O)c3cc(O)c(O)c(O)c3-c3c(cc(O)c(O)c3O)C(=O)O[C@H]2[C@@H]2OC(=O)c3cc(O)c(O)c(O)c3-c3c(cc(O)c(O)c3O)C(=O)O[C@@H]12)c1cc(O)c(O)c(Oc2c(O)c(O)c(O)c3c2C(=O)O[C@H]2[C@@H]4OC(=O)c5cc(O)c(O)c(O)c5-c5c(cc(O)c(O)c5O)C(=O)O[C@H]4[C@@H](OC(=O)c4cc(O)c(O)c(O)c4)O[C@@H]2COC(=O)c2cc(O)c(O)c(O)c2-3)c1`, the inhibition result (in [1]; in data set [2]; in the data set with MDA-MB-231 [7]; in the data set with MDA-MB-231 [9]) was “Active” throughout. Besides, in the data set with MDA-MB-231 [3], the inhibition entry was “inactive”. The Activity entry is reported as “Non-toxic” with HUVEC [4] and 37.6% in the data set with HUVEC [6]. The inhibition at 6.25 µM in the data set with HUVEC [5] came out at 41.5%. Also, the “inhibition (INH)” value in the data set with HUVEC [8] was “Dose-dependent effect”.
